According to publication PMC9445589, “Apolipoprotein E mimetic peptide COG1410 combats pandrug-resistant Acinetobacter baumannii” (Frontiers in Microbiology, 2022):
In brackets after ≈: the same amount, converted by molar mass. Non-standard residues stand in square brackets, D forms with d. Residues, ends and D or L forms follow the SMILES beside them. Aib = CC(C)(N)C(=O)O

Legend:
[1] = system: MDR Streptococcus pneumoniae 10–58; settings: microdilution method in the corresponding broth
[2] = system: MDR Citrobacter freundii 7–83; settings: microdilution method in the corresponding broth
[3] = system: pandrug-resistant (PDR) Acinetobacter baumannii YQ4
[4] = system: EBSL-producing Proteusbacillus vulgaris YQ19; settings: microdilution method in the corresponding broth
A. baumannii YQ4 [5] = assay: ATP leak assay; assay type: cell-based, Acinetobacter baumannii; settings: 16 μg/ml COG1410, 16 μg/ml polymyxin B or 32 μg/ml tigecycline (1× MIC), PBS, 37°C, 30 min
Procedure: ATP leak assay was performed using the Enhanced ATP Assay Kit of Beyotime ([…]) according to the manufacturer's manual. […] The supernatant was harvested and used for the measurement of ATP levels. In total, 100 μl of supernatant was mixed with 100 μl of working solution, and the chemiluminescence was measured by using a Biotek Synergy H1 plate reader. The untreated sample was set as a negative control. The experiments were performed in triplicate.

[6] = system: A. baumannii YQ4 intracellular ROS; assay: ROS detection, DCFH-DA probe; assay type: cell-based, Acinetobacter baumannii; settings: 16 μg/ml
Procedure: The intracellular ROS level was determined by the Reactive Oxygen Species Assay Kit of Beyotime Biotechnology (S0033S), according to the manufacturer's instructions. The log-phase culture of A. baumannii YQ4 was harvested and washed in PBS, and then diluted 10 times, approximately 10^7 CFU/ml. In total, 1 μl of DCFH-DA (10 μM) was added to 1 ml of cell culture and incubated at 37°C for 20 min. Then the fluorescence probe was fully removed by washing with PBS three times and resuspending in PBS, followed by the addition of COG1410 (16 μg/ml) or water. Rosup (50 μg/ml) was positive control in the kit. The culture was incubated at 37°C for 30 min. The fluorescence intensity was measured by a plate reader at an excitation wavelength of 488 nm and an emission wavelength of 525 nm. The experiment was performed in duplicate.

[7] = system: MDR Klebsiella oxytoca 7–85; settings: microdilution method in the corresponding broth
[8] = system: Staphylococcus aureus ATCC29213; assay: MIC, microdilution method; assay type: cell-based; settings: microdilution method in the corresponding broth
Procedure: (§1) Strain stocks were maintained at −80°C in 10% glycerol. Bacteria were streaked on fresh plates before each experiment. Most of them were cultured in LB broth containing 10 g/L NaCl at 37°C, except for Mycobacteria in 7H9 broth and Enterococcus in BHI broth. Porphyromonas gingivalis was cultured in BHI broth supplemented with 1 μg/ml vitamin k1, 5 μg/ml hemin, and 5 mg/ml L-cysteine hydrochloride at 37°C in the anaerobic chamber. The minimal inhibitory concentrations (MICs) of antimicrobials were determined using the microdilution method in the corresponding broth.

[9] = system: Pseudomonas aeruginosa PAO1; assay: MIC, microdilution method; assay type: cell-based; settings: microdilution method in the corresponding broth
Procedure: as §1

[10] = system: vancomycin-resistant Enterococcus faecium 11–47; settings: vancomycin-resistant 11–47
A. baumannii YQ4 [11] = assay: scanning electron microscopy (SEM) of treated cells; assay type: cell-based, Acinetobacter baumannii; settings: 1× MIC (16 μg/ml), PBS, 37°C, 30 min
Procedure: The log-phase culture of A. baumannii YQ4 was prepared as described above, harvested, and washed once with PBS. The pellets were suspended in PBS supplemented with 1 × COG1410 (16 μg/ml) or 1 × polymyxin B (16 μg/ml) and incubated at 37°C for 30 min. The untreated culture was used as a positive control to observe the morphology of the intact cell. […] After washing three times with PBS, the cells were post-fixed in 1% osmium at 4 °C for 1 h. After washing in distilled water for 1 h, the bacteria were dehydrated in the ascending concentrations of ethanol. Finally, these samples were transferred to ThermoFisher Quattro SEM for image collection after tert-butanol freeze-drying and sputter coating.

[12] = system: MDR Mycobacterium tuberculosis 6–45; settings: microdilution method, 7H9 broth
[13] = system: clinically collected A. baumannii strains
Procedure: as §1
TAble S2. Determination of bactericidal effect of COG1410 against clinically collected A. baumannii strains. MIC was measured in LB broth by microdilution method.

MDR Serratia mucosa YQ15 = settings: microdilution method in the corresponding broth
[14] = system: A. baumannii ATCC19606 and two LPS-modified strains, pmrA^P102R and pmrA^P102RmiaA^I221V; assay: MIC against LPS-modified strains; assay type: cell-based, Acinetobacter baumannii; settings: MIC in LB broth, wild type versus mutants
Procedure: The growth curve was measured in duplicate, with eight wells for each treatment in a 96-well plate each time. […] Experiments were conducted in triplicate. Data indicated mean ± SD values.

[15] = system: MDR Pseudomonas aeruginosa 14–61; settings: microdilution method in the corresponding broth
A. baumannii YQ4 [16] = assay: antibacterial activity (LC99.9) in PBS or 50% pooled human plasma; assay type: cell-based, Acinetobacter baumannii; settings: 2 h, 37°C
Procedure: The antibacterial activity of COG1410 in plasma was performed as described previously (De Breij et al., [2018]). Briefly, the log-phase culture of A. baumannii YQ4 was exposed to different concentrations of COG1410 in PBS or PBS supplemented with 50% (v/v) pooled human plasma. After incubation with shaking at 200 rpm at 37°C for 2 h, the CFU was counted on LB agar. LC99.9 indicates the lowest peptide concentration that kills ≥99.9% of bacteria. The experiments were conducted independently in triplicate.

[17] = system: vancomycin-resistant Enterococcus faecalis 11–34; settings: vancomycin-resistant 11–34
[18] = system: A. baumannii YQ4 preformed biofilm; assay: biofilm eradication assay, crystal violet; assay type: cell-based, Acinetobacter baumannii; settings: 48 h preformed biofilm, 24 h treatment
Procedure: Biofilm eradication assay was performed as described previously (Mwangi et al., [2019]). A. baumannii YQ4 culture of log phase was diluted in fresh LB broth to OD600 0.01 and dispensed to a 96-well PVC plate with 200 μl per well. Plates were incubated at 37°C for 48 h and washed with PBS three times. Serial dilutions of COG1410 (0.5–128 μg/ml) were prepared using the same media, and 200 μl were dispensed into each well. Each concentration was determined in eight wells. LB without COG1410 was used as untreated control. After incubation for another 24 h, the remaining biofilm was quantified as described above. The experiments were performed in triplicate.

CC(=O)N[C@@H](C)C(=O)N[C@@H](CO)C(=O)NC(C)(C)C(=O)N[C@@H](CC(C)C)C(=O)N[C@@H](CCCNC(=N)N)C(=O)N[C@@H](CCCCN)C(=O)N[C@@H](CC(C)C)C(=O)NC(C)(C)C(=O)N[C@@H](CCCCN)C(=O)N[C@@H](CCCNC(=N)N)C(=O)N[C@@H](CC(C)C)C(=O)N[C@@H](CC(C)C)C(N)=O [COG1410, acetyl-AS-Aib-LRKL-Aib-KRLL-amide] (Ac-AS[Aib]LRKL[Aib]KRLL-NH2)
MIC [1]: >256 mg/L
MIC [2]: 16 mg/L (≈ 11.4 µM)
minimal bactericidal concentration (MBC) [3]: 16 mg/L (≈ 11.4 µM)
MIC [4]: >256 mg/L
ATP leak (extracellular ATP) (A. baumannii YQ4 [5]): significantly more than untreated control and tigecycline treatment group
ROS production, in words ([6]; 37°C, Figure 3D): significantly lead to more ROS production
more ROS detected by DCFH-DA probe ([6]; treatment for 20 min as printed): 30%
MIC [7]: >256 mg/L
MIC [8]: >256 mg/L
MIC [9]: >256 mg/L
MIC [10]: 16 mg/L (≈ 11.4 µM)
cell morphology by SEM (A. baumannii YQ4 [11]): intact, with little debris observed
MIC [12]: 16 mg/L (≈ 11.4 µM)
MICs over 107 clinically collected A. baumannii strains ([13]; clinically collected strains): 16 to 32 µg/mL
MIC ([13]; strain Ab3-1 (MDR-Ab, hydrothorax and ascite), LB broth): 32 mg/L (≈ 22.7 µM)
MIC (MDR Serratia mucosa YQ15): >256 mg/L
effect of lipid A modification of LPS on antimicrobial efficacy [14]: did not change the antimicrobial efficacy
MIC [15]: >256 mg/L
LC99.9 (A. baumannii YQ4 [16]; PBS with 50% (v/v) pooled human plasma): 8 µg/mL
LC99.9 (A. baumannii YQ4 [16]; PBS, lowest concentration that kills ≥99.9% of bacteria): 2 µg/mL
MIC [17]: 32 mg/L (≈ 22.7 µM)
mature biofilm dispersed ([18]; 1× MIC): approximately 46%
biofilm eradicated ([18]; 4 × MIC): more than 88%
